Laboratory results from US8906908B2, “Hydroxybupropion analogues for treating drug dependence” (priority 2010, dated 2014).
Where two headings read alike, the source gives them in different places.

Assays:
[1] = tested on: Male Institute of Cancer Research (ICR) mice; assay: Body temperature, antagonism of nicotine-induced hypothermia; assay type: in vivo; settings: pretreatment 15 min before nicotine 2.5 mg/kg s.c., tested 30 min after nicotine
Method: (§1) Animals: Male Institute of Cancer Research (ICR) mice (weighing 20-25 g) obtained from Harlan (Indianapolis, Ind.) were used throughout the study. Animals were housed in an Association for Assessment and Accreditation of Laboratory Animal Care-approved facility, were placed in groups of six, and had free access to food and water. Studies were approved by the Institutional Animal Care and Use Committee of Virginia Commonwealth University.
Body Temperature: Rectal temperature was measured by a thermistor probe (inserted 24 mm) and digital thermometer (YSI Inc., Yellow Springs, Ohio). Readings were taken just before and 30 min after subcutaneous injection of either saline or 2.5 mg/kg nicotine. The difference in rectal temperature before and after treatment was calculated for each mouse. The ambient temperature of the laboratory varied from 21 to 24° C. from day to day. […] The animals were then tested 30 min after administration of a subcutaneous dose of 2.5 mg/kg nicotine.

[2] = biological target: T1, muscle-type nAChR (α1β1γδ- or α1*-nAChR) (Homo sapiens, UniProt P02708+P07510+P11230+Q07001); assay: 86Rb+ efflux nAChR functional assay, TE671/RD cells; assay type: cell-based; settings: parentheses = S.E.M. as multiplication/division factor
T1 construct: Cells of the TE671/RD line naturally expresses muscle-type nAChR; endogenous in cells; host or cells: TE671/RD cells
From the text: (§2) Cell Lines and Culture: Human embryonic kidney (HEK-293) cells stably expressing human DAT, NET or SERT were maintained as previously described in Eshleman, A. J.; Carmolli, M.; Cumbay, M.; Martens, C. R.; Neve, K. A.; Janowsky, A., J. Pharmacol. Exp. Ther. 1999, 289, (2), 877-885. Use was made of several human cell lines that naturally or heterologously express specific, functional, human nAChR subtypes. Cells of the TE671/RD line naturally expresses muscle-type nAChR (a1β1γδ- or α1*-nAChR), and SH-SY5Y neuroblastoma cells naturally expresses autonomic α3β4*-nAChRs (containing α3, β4, probably α5, and sometimes β2 subunits). Different clones of SH-EP1 epithelial cell lines have been engineered to heterologously express either α4β2-nAChR, which are thought to be the most abundant, high affinity nicotine-binding nAChR in mammalian brain, or α4β4-nAChR, another possible brain nAChR subtype (SH-EP1-hα4β2 or α4β4 cells, respectively). These cells were maintained as low passage number (1-26 from our frozen stocks) cultures to ensure stable expression of native or heterologously-expressed nAChR as previously described (see Lukas, R. J.; Fryer, J. D.; Eaton, J. B.; L., G. C., Some methods for studies of nicotinic acetylcholine receptor pharmacology, in Nicotinic receptors and the Nervous System, Levine, E. D., Ed. CRC Press: Boca Raton, 2002; pp 3-27, incorporated herein by reference in its entirety). Cells were passaged once weekly by splitting just-confluent cultures 1/300 (TE671/RD), 1/5 (SH-SY5Y), or 1/20 (transfected SH-EP1) in serum-supplemented medium to maintain log-phase growth.
After cells had adhered (generally overnight, but no sooner than 4 h later), the medium was removed and replaced with 250 μL per well of complete medium supplemented with ˜350,000 cpm of ^86Rb^+ (PerkinElmer Life and Analytical Sciences, Boston, Mass.) and counted at 40% efficiency using Cerenkov counting (TriCarb 1900 liquid scintillation analyzer[…]; PerkinElmer Life Sciences).
After at least 4 h and typically overnight, ^86Rb^+ efflux was measured using the “flip-plate” technique. See Lukas, R. J.; Fryer, J. D.; Eaton, J. B.; L., G. C., Some methods for studies of nicotinic acetylcholine receptor pharmacology, in Nicotinic receptors and the Nervous System, Levine, E. D., Ed. CRC Press: Boca Raton, 2002; pp 3-27, incorporated herein by reference in its entirety). Briefly, after aspiration of the bulk of ^86Rb^+ loading medium from each well of the “cell plate,” each well containing cells was rinsed 3× with 2 mL of fresh ^86Rb^+ efflux buffer (130 mM NaCl, 5.4 mM KCl, 2 mM CaCl2, 5 mM glucose, 50 mM HEPES, pH 7.4) to remove extracellular ^86Rb^+. Following removal of residual rinse buffer by aspiration, the flip-plate technique was used again to simultaneously introduce 1.5 mL of fresh efflux buffer containing drugs of choice at indicated final concentrations from a 24-well “efflux/drug plate” into the wells of the cell plate. After a 5 min incubation, the solution was “flipped” back into the efflux/drug plate, and any remaining buffer in the cell plate was removed by aspiration. Cells remaining in the cell plate were lysed and suspended by addition of 1.5 mL of 0.1 M NaOH, 0.1% sodium dodecyl sulfate to each well.
Similarly, the sum of ^86Rb^+ in cell plates and efflux/drug plates also determined the efficiency of ^86Rb^+ loading (the percentage of applied ^86Rb^+ actually loaded into cells).
Specific efflux was then taken as the difference in control samples between total and non-specific ^86Rb^+ efflux. Any intrinsic agonist activity of test drugs was ascertained using samples containing test drug only at different concentrations and was normalized, after subtraction of non-specific efflux, to specific efflux in test drug-free, control samples.

[3] = tested on: Male Institute of Cancer Research (ICR) mice; assay: Tail-flick test, blockade of nicotine-induced antinociception; assay type: in vivo
From the text: as §1
Tail-Flick Test: Antinociception for pain mediated at the spinal level was assessed by the tail-flick method of D'Amour, F. E.; Smith, D. L., J. Pharmacol. Exp. Ther. 1941, 72, 74-79, incorporated herein by reference in its entirety. In brief, mice were lightly restrained while a radiant heat source was shone onto the upper portion of the tail. To minimize tissue damage, a maximum latency of 10 s was imposed. Latency to remove the tail from the heat source was recorded for each animal. […] Antinociceptive response was calculated as the percentage of maximum possible effect (% MPE), where % MPE=[(test control)/(10 control)]×100.

[4] = biological target: T2, human DA transporters [(h)DAT] (Homo sapiens, UniProt Q01959); assay: Inhibition of [3H]dopamine uptake into HEK293 cells stably expressing hDAT; assay type: cell-based; settings: HEK293-hDAT; mean ± standard error of three independent experiments; read-out: monoamine uptake inhibition IC50 [3H]DA
T2 construct: expressed in transfected cells; host or cells: HEK-293
From the text: as §2
See, for example, Damaj, M. I.; Carroll, F. I.; Eaton, J. B.; Navarro, H. A.; Blough, B. E.; Mirza, S.; Lukas, R. J.; Martin, B. R., Mol. Pharmacol. 2004, 66, (3), 675-682 and Eshleman, A. J.; Carmolli, M.; Cumbay, M.; Martens, C. R.; Neve, K. A.; Janowsky, A., J. Pharmacol. Exp. Ther. 1999, 289, (2), 877-885, both incorporated by reference herein in their entireties.

[5] = nAChR inhibition IC50 α1*β1, EC80-EC90 carbamylcholine
[6] = mice, pretreatment 15 min before nicotine 2.5 mg/kg s.c., tested 5 min after nicotine

T2 sequence (Q01959 whole entry): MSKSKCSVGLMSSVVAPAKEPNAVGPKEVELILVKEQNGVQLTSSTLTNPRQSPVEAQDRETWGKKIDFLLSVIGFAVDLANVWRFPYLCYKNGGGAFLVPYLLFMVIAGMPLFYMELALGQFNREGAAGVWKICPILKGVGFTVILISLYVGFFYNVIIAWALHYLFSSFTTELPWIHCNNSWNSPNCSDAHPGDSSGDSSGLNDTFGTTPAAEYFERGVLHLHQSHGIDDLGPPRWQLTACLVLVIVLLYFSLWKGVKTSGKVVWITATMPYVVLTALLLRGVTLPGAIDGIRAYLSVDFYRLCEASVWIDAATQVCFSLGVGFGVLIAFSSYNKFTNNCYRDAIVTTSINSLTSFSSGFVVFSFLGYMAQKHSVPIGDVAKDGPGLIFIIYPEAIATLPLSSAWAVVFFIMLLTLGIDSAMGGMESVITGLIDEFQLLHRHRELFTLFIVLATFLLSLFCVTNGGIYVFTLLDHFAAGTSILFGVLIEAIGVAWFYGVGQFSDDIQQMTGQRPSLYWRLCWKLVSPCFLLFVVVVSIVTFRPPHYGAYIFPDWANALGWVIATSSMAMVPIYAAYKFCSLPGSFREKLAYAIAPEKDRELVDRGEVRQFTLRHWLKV
T1 sequence (P02708 21-457): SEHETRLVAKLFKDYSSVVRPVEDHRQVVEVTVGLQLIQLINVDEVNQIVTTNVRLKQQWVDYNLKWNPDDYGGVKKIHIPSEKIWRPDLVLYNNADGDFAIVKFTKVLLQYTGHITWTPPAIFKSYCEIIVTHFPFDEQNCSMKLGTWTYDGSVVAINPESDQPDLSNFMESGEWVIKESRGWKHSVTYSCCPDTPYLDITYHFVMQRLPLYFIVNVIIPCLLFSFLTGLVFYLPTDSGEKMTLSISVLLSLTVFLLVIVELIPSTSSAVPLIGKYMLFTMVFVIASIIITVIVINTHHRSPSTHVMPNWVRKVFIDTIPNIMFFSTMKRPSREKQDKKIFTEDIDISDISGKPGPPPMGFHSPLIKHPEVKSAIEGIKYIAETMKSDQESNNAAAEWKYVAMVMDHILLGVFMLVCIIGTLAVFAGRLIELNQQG
T1 sequence (P11230 24-501): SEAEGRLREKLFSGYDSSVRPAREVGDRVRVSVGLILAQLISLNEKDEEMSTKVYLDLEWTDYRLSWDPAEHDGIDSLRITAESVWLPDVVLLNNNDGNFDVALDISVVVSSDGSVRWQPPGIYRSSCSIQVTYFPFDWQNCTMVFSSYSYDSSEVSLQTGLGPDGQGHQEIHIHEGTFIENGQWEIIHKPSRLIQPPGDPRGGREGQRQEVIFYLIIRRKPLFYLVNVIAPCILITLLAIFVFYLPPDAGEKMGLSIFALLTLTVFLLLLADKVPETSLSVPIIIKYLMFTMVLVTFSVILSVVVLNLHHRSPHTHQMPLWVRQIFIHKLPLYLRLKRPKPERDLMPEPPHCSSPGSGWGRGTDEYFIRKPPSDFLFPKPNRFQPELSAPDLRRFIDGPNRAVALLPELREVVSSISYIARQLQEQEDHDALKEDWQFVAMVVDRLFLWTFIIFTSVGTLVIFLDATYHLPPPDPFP
T1 sequence (P07510 23-517): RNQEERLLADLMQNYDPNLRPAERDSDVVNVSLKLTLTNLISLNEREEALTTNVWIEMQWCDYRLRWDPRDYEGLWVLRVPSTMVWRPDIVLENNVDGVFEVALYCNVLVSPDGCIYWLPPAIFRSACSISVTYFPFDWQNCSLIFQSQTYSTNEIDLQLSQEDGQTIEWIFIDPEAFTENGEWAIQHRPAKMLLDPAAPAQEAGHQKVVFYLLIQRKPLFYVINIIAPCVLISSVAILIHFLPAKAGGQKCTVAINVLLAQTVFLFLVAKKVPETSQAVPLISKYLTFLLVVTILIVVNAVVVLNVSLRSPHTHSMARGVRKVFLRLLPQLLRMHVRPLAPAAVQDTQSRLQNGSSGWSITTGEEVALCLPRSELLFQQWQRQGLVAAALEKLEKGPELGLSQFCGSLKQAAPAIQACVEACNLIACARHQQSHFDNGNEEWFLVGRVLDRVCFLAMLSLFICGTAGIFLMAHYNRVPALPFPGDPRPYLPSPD
T1 sequence (Q07001 22-517): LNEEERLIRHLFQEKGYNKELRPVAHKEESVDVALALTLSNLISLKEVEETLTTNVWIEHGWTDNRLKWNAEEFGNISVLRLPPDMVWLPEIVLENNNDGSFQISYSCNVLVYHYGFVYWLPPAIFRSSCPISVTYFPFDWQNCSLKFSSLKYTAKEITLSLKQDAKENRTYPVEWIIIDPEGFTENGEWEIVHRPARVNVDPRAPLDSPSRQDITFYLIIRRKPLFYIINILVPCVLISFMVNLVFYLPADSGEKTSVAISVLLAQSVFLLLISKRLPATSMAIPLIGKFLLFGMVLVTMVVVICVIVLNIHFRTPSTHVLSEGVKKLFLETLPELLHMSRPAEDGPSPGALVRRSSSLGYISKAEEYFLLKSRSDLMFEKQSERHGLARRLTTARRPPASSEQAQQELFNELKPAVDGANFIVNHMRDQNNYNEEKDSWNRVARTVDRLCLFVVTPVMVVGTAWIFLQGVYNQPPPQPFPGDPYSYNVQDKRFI

| SMILES | AD50 Hypothermia [1] | IC50 [2, 5] [µM] | AD50 Tail-flick [3, 6] | IC50 [4] [nM] | IC50 ([2]; EC80-EC90 carbamylcholine, read-out: nAChR inhibition IC50 α1*β1) [µM] | ED50 ([3]; Mus musculus, 5 min, mice, pretreatment 15 min before nicotine 2.5 mg/kg s.c., tested 5 min after nicotine, read-out: AD50 Tail-flick) [mg/kg] | activity in the tail-flick assay relative to (2S,3S)-4a ([3]; higher activity than (2S,3S)-4a) [fold] |
| --- | --- | --- | --- | --- | --- | --- | --- |
| CC1NC(C)(C)COC1(O)c1cc(Cl)cc(Cl)c1 (racemic) [Compound 4p, 2-(3,5-Dichlorophenyl)-3,5,5-trimethylmorpholin-2-ol] | IA (IA: AD50 > 15 mg/kg) | 7.2 | IA (IA: AD50 > 15 mg/kg) | 8250 ± 720 | – | – | – |
| C[C@@H]1NC(C)(C)CO[C@@]1(O)c1ccccc1 [Compound 4b, (2S,3S)-2-Phenyl-3,5,5-trimethylmorpholin-2-ol] | IA (IA: AD50 > 15 mg/kg) | > 100 | IA (IA: AD50 > 15 mg/kg) | 1060 ± 30 | – | – | – |
| C[C@@H]1NC(C)(C)CO[C@@]1(O)c1ccc2ccccc2c1 [Compound 4r, (2S,3S)-2-(Naphthalen-2-yl)-3,5,5-trimethylmorpholin-2-ol] | IA (IA: AD50 > 15 mg/kg) | – | – | 453 | 11 | 0.04 | ~5 |
